According to patent publication US20050245489A1, “Chromene-containing compounds with anti-tubulin and vascular targeting activity” (priority 2004, published 2005):
Converted amounts (≈) assume the structure as drawn.

Key:
[1] = test system: KM20L2 (colon) cancer cell line; assay: In vitro growth inhibition (SRB), KM20L2; assay type: cell-based, human; details: for GI50: Homo sapiens, KM-20L2, 48 hours
Protocol: (§1) Newly prepared compounds were evaluated for cytotoxic activity against a variety of cell lines derived from human tumors using an assay system similar to the National Cancer Institute procedure previously described (Monks et al, J. Natl. Cancer Inst., 1991). Briefly, the cell suspensions, diluted according to the particular cell type and the expected target cell density (5,000-40,000 cells per well based on cell growth characteristics), were added by pipet (100 μl) to 96-well microtiter plates. Inoculates were allowed a preincubation time of 24-28 hours at 37° C. for stabilization. Incubation with the inhibitor compounds lasted for 48 hours in 5% CO2 atmosphere and 100% humidity. Determination of cell growth was performed by in situ fixation of cells, followed by staining with a protein-binding dye sulforhodamine B (SRB), which binds to the basic amino acids of cellular macromolecules. The solubilized stain was measured spectrophotometrically.
(§2) Several compounds were evaluated for cytotoxic activity against […] P388 leukemia cell lines. The effective dose or ED50 value (defined as the effective dosage required to inhibit 50% of cell growth) was measured. These and additional compounds were evaluated in terms of growth inhibitory activity against several other human cancer cell lines including: central nervous system (“CNS”, SF-268), pancreas (BXPC-3), non-small cell lung cancer (“lung-NSC”, NCI-H460), breast (MCF-7), colon (KM20L2), ovarian (OVCAR-3), and prostate (DU-145). The growth inhibition GI50 (defined as the dosage required to inhibit tumor cell growth by 50%) is listed for each cell line.

[2] = test system: SF-268 (CNS) cancer cell line; assay: In vitro growth inhibition (SRB), SF-268; assay type: cell-based, human; details: 48 hours; for GI50: Homo sapiens
Protocol: as §1, §2

[3] = test system: NCI-H460 (lung-NSC) cancer cell line; assay: In vitro growth inhibition (SRB), NCI-H460; assay type: cell-based, human; details: 48 hours; for GI50: Homo sapiens
Protocol: as §1, §2

[4] = test system: BXPC-3 (pancreas) cancer cell line; assay: In vitro growth inhibition (SRB), BXPC-3; assay type: cell-based, human; details: 48 hours; for GI50: Homo sapiens
Protocol: as §1, §2

[5] = test system: DU-145 (prostate) cancer cell line; assay: In vitro growth inhibition (SRB), DU-145; assay type: cell-based, human; details: 48 hours; for GI50: Homo sapiens
Protocol: as §1, §2

[6] = test system: MCF-7 (breast) cancer cell line; assay: In vitro growth inhibition (SRB), MCF-7; assay type: cell-based, human; details: for GI50: Homo sapiens, MCF7, 48 hours
Protocol: as §1, §2

[7] = test system: P388 leukemia cell lines; assay: In vitro cytotoxicity (SRB) against P388 leukemia cell line; assay type: cell-based, mouse; details: 48 hours incubation
Protocol: as §1
Several compounds were evaluated for cytotoxic activity against […] P388 leukemia cell lines. […] These and additional compounds were evaluated in terms of growth inhibitory activity against several other human cancer cell lines including: central nervous system (“CNS”, SF-268), pancreas (BXPC-3), non-small cell lung cancer (“lung-NSC”, NCI-H460), breast (MCF-7), colon (KM20L2), ovarian (OVCAR-3), and prostate (DU-145). […]

[8] = test system: purified tubulin; assay: In vitro inhibition of tubulin polymerization; assay type: biochemical; details: purified bovine brain tubulin 1.5 mg/ml, 15 min preincubation at 37° C., GTP-induced, 350 nm
Protocol: IC50 values for tubulin polymerization were determined according to a previously described procedure (Bai et al., Cancer Research, 1996). Purified tubulin is obtained from bovine brain cells as previously described (Hamel and Lin, Biochemistry, 1984). Various amounts of inhibitor were preincubated for 15 minutes at 37° C. with purified tubulin. After the incubation period, the reaction was cooled and GTP was added to induce tubulin polymerization. Polymerization was then monitored in a Gilford spectrophotometer at 350 nm. The final reaction mixtures (0.25 ml) contained 1.5 mg/ml tubulin, 0.6 mg/ml microtubule-associated proteins (MAPs), 0.5 mM GTP, […], 4% DMSO and 0.1M 4-morpholineethanesulfonate buffer (MES, pH 6.4). IC50 is the amount of inhibitor needed to inhibit tubulin polymerization 50% with respect to the amount of […] that occurs in the absence of inhibitor.

[9] = test system: MHEC-5T hemangioendothelioma tumor; assay: Inhibition of tumor blood flow, Fluorescent Bead Assay; assay type: in vivo, SCID mice; details: 24 hours post-treatment, vessel area per tumor tissue area as percentage of control
Protocol: The antivascular effects of the chromene phosphate prodrug were assessed in tumor-bearing mice using a Fluorescent Bead Assay. A MHEC-5T hemangioendothelioma tumor model was established by subcutaneous injection of 0.5×10^6 cultured transformed cell murine myocardial vascular endothelial cell line (“MHEC5-T”) cells into the right flank of Fox Chase CB-17 Severe Combined Immunodeficient (“SCID”) mice. […] At 24 hours post-treatment, mice were injected intravenously with 0.25 ml of diluted FluoSphere beads (1:6 in physiological saline) in the tail vein, sacrificed after 3 minutes, and tumor was excised for cryosectioning. Tumor cryosections at a thickness of 8 um were directly examined using quantitative fluorescent microscopy. Blood vessels were indicated by blue fluorescence from injected beads. For quantification, image analysis of 3 sections from three tumors treated in each group were examined and vascular shutdown was expressed as vessel area (mm^2) per tumor tissue area (mm^2) as a percentage of the control (“% VAPM”).

COc1ccc2c(c1)OCC(C(=O)c1cc(OC)c(OC)c(OC)c1)=C2 [Compound 8, 3-(3′, 4′, 5′-Trimethoxybenzoyl)-7-methoxy-2H-chromene] showed a GI50 [1] of 0.47 µg/mL (≈ 1.32 µM), a GI50 [2] of 0.32 µg/mL (≈ 0.898 µM) and a GI50 [3] of 0.3 µg/mL (≈ 0.842 µM). It also gave a GI50 [4] of 0.27 µg/mL (≈ 0.758 µM), a GI50 [5] of 0.26 µg/mL (≈ 0.73 µM) and a GI50 [6] of 0.3 µg/mL (≈ 0.842 µM).

COc1cc2c(cc1O)C=C(C(=O)c1cc(OC)c(OC)c(OC)c1)CO2 [Compound 9, 3-(3′, 4′, 5′-Trimethoxybenzoyl)-6-hydroxy-7-methoxy-2H-chromene] was tested, and the GI50 [1] was 2.3 µg/mL (≈ 6.18 µM), the GI50 [2] was 0.45 µg/mL (≈ 1.21 µM) and the GI50 [3] was 0.32 µg/mL (≈ 0.859 µM). The “ED50 for P-388 Cell Line” value [7] was 0.25 µg/mL, the GI50 [4] was 0.27 µg/mL (≈ 0.725 µM) and the GI50 [5] was 0.16 µg/mL (≈ 0.43 µM). For the same compound, the IC50 [8] was 1 to 4 µM and the GI50 [6] was 0.069 µg/mL (≈ 0.185 µM).

COc1ccc2c(c1O)OCC(C(=O)c1cc(OC)c(OC)c(OC)c1)=C2 [Compound 5, 3-(3′,4′,5′-Trimethoxybezoyl)-7-methoxy-8-hydroxy-2H-chromene] showed a GI50 [1] of 3.2 µg/mL (≈ 8.59 µM), a GI50 [2] of 0.022 µg/mL (≈ 0.0591 µM) and a GI50 [3] of 0.46 µg/mL (≈ 1.24 µM). It also gave a GI50 [4] of 3.5 µg/mL (≈ 9.4 µM), a GI50 [5] of 0.049 µg/mL (≈ 0.132 µM) and a GI50 [6] of 0.0055 µg/mL (≈ 0.0148 µM).

In the case of “3-(3′,4′,5′-Trimethoxybezoyl)-7-methoxy-2H-chromene-phosphate salt [Compound 7]”, the “GI50 for Cell Line KM20L2” value ([1]; 48 hours) is reported as 3.5 µg/mL, the “GI50 for Cell Line SF-268” value [2] is reported as 0.034 µg/mL and the “% VAPM at 10 mg/kg dose” value ([9]; 10 mg/kg single i.p. dose) is reported as 57%. The “% VAPM at 100 mg/kg dose” value ([9]; 100 mg/kg single i.p. dose) was 33%, the “GI50 for Cell Line NCI-H460” value [3] was 0.14 µg/mL and the “ED50 for P-388 Cell Line” value [7] was 0.173 µg/mL. The “GI50 for Cell Line BXPC-3” value [4] was 0.44 µg/mL, the “GI50 for Cell Line DU-145” value [5] was 0.18 µg/mL and the “GI50 for Cell Line MCF-7” value ([6]; 48 hours) was 0.056 µg/mL.
